Results as given in publication PMC5895059, “Scaffold hopping from (5-hydroxymethyl) isophthalates to multisubstituted pyrimidines diminishes binding affinity to the C1 domain of protein kinase C” (PLoS ONE, 2018).
Several values for one entry are separate records, joined by “and”; a condition that tells them apart may be missing. Identical values can stand only once.

How the values were obtained:
PKCα [1] = molecular target: T1, PKCα (Homo sapiens, UniProt P17252); conditions: read-out: Ki PKCα; cited from earlier work
PKCα [2] = molecular target: T1, PKCα; assay: [3H]PDBu displacement, 96-well plate filtration binding assay; conditions: for Displacement assay raw data (CCPM): single replicate wells; for Residual [^3H]PDBu binding to PKCα (% of control): 20 μM compound concentration, mean + SEM, n = 2–8
PKCα and -δ = molecular target: PKCα and -δ; set-up: method as in PMID 19438240; conditions: for PKCα and -δ; cited from earlier work

Residual [^3H]PDBu binding to PKCα (% of control) (PKCα [2]) | Structure (SMILES) | Ki (PKCα [1]) [nM] | Displacement assay raw data (CCPM) (PKCα [2]; 0,2 µM test substance) | Displacement assay raw data (CCPM) (PKCα [2]; 1 µM test substance) | Displacement assay raw data (CCPM) (PKCα [2]; 4 µM test substance) | Displacement assay raw data (CCPM) (PKCα [2]; 10 µM test substance) | Displacement assay raw data (CCPM) (PKCα [2]; 20 µM test substance) | Displacement assay raw data (CCPM) (PKCα [2]; 30 µM test substance) | further results
– | CCCCCCCCCCc1ccc2c(c1)N[C@@H](C(C)C)C(=O)N[C@H](CO)C2 [9-Decyl-benzolactam-V8, 9-decyl-benzolactam-V8] | 3.8 | – | – | – | – | – | – | –
87.2 ± 1.7 % of control | CCCCCCCOc1nc(CO)nc(C(=O)OC(CC)CCCC)c1C (stereo not shown) [Compound 2i, Heptan-3-yl 6-(heptyloxy)-2-(hydroxymethyl)-5-methylpyrimidine-4-carboxylate] | – | 4873 CCPM and 4870 CCPM and 5222 CCPM and 7916 CCPM and 8966 CCPM and 8933 CCPM | 5191 CCPM and 5217 CCPM and 5062 CCPM and 8605 CCPM and 8987 CCPM and 9227 CCPM | 5070 CCPM and 5217 CCPM and 5699 CCPM and 8553 CCPM and 8476 CCPM and 8686 CCPM | 4806 CCPM and 5282 CCPM and 4681 CCPM and 7955 CCPM and 8861 CCPM and 7525 CCPM | 4663 CCPM and 4781 CCPM and 4927 CCPM and 7593 CCPM and 7766 CCPM and 7574 CCPM | 4959 CCPM and 5003 CCPM and 5038 CCPM and 7682 CCPM and 7603 CCPM and 7191 CCPM | –
87.2 ± 6.0 % of control | CCCCCCCOc1nc(CO)nc(C(=O)OCc2cccc(C(F)(F)F)c2)c1C [Compound 2j, 3-(trifluoromethyl)benzyl 6-(heptyloxy)-2-(hydroxymethyl)-5-methylpyrimidine-4-carboxylate] | – | 5070 CCPM and 6403 CCPM and 6171 CCPM and 8628 CCPM and 8277 CCPM and 7942 CCPM | 5379 CCPM and 6351 CCPM and 6353 CCPM and 8453 CCPM and 7986 CCPM and 7710 CCPM | 5347 CCPM and 4876 CCPM and 6039 CCPM and 8146 CCPM and 8038 CCPM and 8545 CCPM | 4978 CCPM and 4910 CCPM and 4651 CCPM and 7817 CCPM and 7871 CCPM and 7636 CCPM | 5492 CCPM and 5042 CCPM and 4393 CCPM and 7145 CCPM and 7596 CCPM and 7314 CCPM | 4511 CCPM and 5233 CCPM and 4215 CCPM and 6957 CCPM and 7148 CCPM and 7222 CCPM | –
110.7 ± 5.5 % of control | CCCCC(CC)Oc1nc(CO)nc(C(=O)OC)c1C (stereo not shown) [Compound 2k, Methyl 6-(heptan-3-yloxy)-2-(hydroxymethyl)-5-methylpyrimidine-4-carboxylate] | – | 13386 CCPM and 11844 CCPM and 11381 CCPM and 5560 CCPM and 5090 CCPM and 5580 CCPM | 12313 CCPM and 12292 CCPM and 11097 CCPM and 5334 CCPM and 5340 CCPM and 5211 CCPM | 12488 CCPM and 11770 CCPM and 11977 CCPM and 5381 CCPM and 5013 CCPM and 5436 CCPM | 12602 CCPM and 12313 CCPM and 12064 CCPM and 5438 CCPM and 4595 CCPM and 5996 CCPM | 12386 CCPM and 11227 CCPM and 11279 CCPM and 6057 CCPM and 6588 CCPM and 6792 CCPM | 11742 CCPM and 11565 CCPM and 11279 CCPM and 5575 CCPM and 6135 CCPM and 5991 CCPM | –
87.2 ± 3.1 % of control | CCCCC(CC)Oc1nc(CO)nc(C(=O)OCc2cccc(C(F)(F)F)c2)c1C (stereo not shown) [Compound 2l, 3-(trifluoromethyl)benzyl 6-(heptan-3-yloxy)-2-(hydroxymethyl)-5-methylpyrimidine-4-carboxylate] | – | 11787 CCPM and 12303 CCPM and 12556 CCPM and 11461 CCPM and 11853 CCPM and 10747 CCPM | 11810 CCPM and 12833 CCPM and 12739 CCPM and 9497 CCPM and 9690 CCPM and 11213 CCPM | 12017 CCPM and 12127 CCPM and 12580 CCPM and 10346 CCPM and 11241 CCPM and 10654 CCPM | 10371 CCPM and 11662 CCPM and 12071 CCPM and 9995 CCPM and 8831 CCPM and 10464 CCPM | 9853 CCPM and 10455 CCPM and 11136 CCPM and 9012 CCPM and 9579 CCPM and 9472 CCPM | 9538 CCPM and 8697 CCPM and 9196 CCPM and 7998 CCPM and 9967 CCPM and 8566 CCPM | Displacement of [^3H]PDBu from PKCα (in words) (PKCα [2]; concentration range of 0.2–30 μM): strongest concentration dependence
54.8 ± 2.6 % of control | O=C(OCc1cccc(C(F)(F)F)c1)c1cc(CO)cc(C(=O)OCc2cccc(C(F)(F)F)c2)c1 [HMI-1a3, reference compound] | – | – | – | – | – | – | – | –
– | CCCCC(CC)OC(=O)c1cc(CO)cc(C(=O)OC(CC)CCCC)c1 (stereo not shown) [HMI-1b11] | – | – | – | – | – | – | – | Ki (PKCα and -δ): 205 to 915 nM
– | CC(C)C1C(=O)NC(CO)Cc2c[nH]c3cccc(c23)N1C (stereo not shown) [Indolactam-V, indolactam-V] | 11 | – | – | – | – | – | – | –
– | C/C=C(/C)C(=O)O[C@H]1C(C)=C[C@]23C(=O)[C@H](C=C(CO)[C@@H](O)[C@]12O)[C@H]1[C@@H](C[C@H]3C)C1(C)C [Ingenol 3-angelate, ingenol 3-angelate] | 0.1 | – | – | – | – | – | – | –
– | CC1=CC[C@H](C)C(C)(C)[C@@H]1/C=C/C(C)=C/CC[C@@]1(CO)[C@H](CCCO)/C(=C(/C)C=O)CC[C@]1(C)O [Iripallidal, iripallidal] | 75.6 | – | – | – | – | – | – | –
– | C=C(C)[C@@]12O[C@@]3(c4ccccc4)O[C@@H]1[C@@H]1[C@@H]4O[C@]4(CO)[C@@H](O)[C@]4(O)C(=O)C(C)=C[C@H]4[C@@]1(O3)[C@H](C)[C@H]2OC(=O)/C=C/C=C/c1ccccc1 [Mezerein, mezerein] | 0.27 | – | – | – | – | – | – | –
– | CCCCCCCCCCCCCC(=O)O[C@@H]1[C@@H](C)[C@@]2(O)[C@@H](C=C(CO)C[C@]3(O)C(=O)C(C)=C[C@@H]23)[C@@H]2C(C)(C)[C@]12OC(C)=O [Phorbol 12-myristate-13-acetate, reference compound] | – | – | – | – | – | – | – | Displacement assay raw data (CCPM) (PKCα [2]; 1 nM test substance, listed as PMA): 1177 CCPM and 1302 CCPM and 1254 CCPM and 242 CCPM and 282 CCPM and 239 CCPM and 330 CCPM and 372 CCPM and 364 CCPM; Displacement assay raw data (CCPM) (PKCα [2]; 10 nM test substance, listed as PMA): 406 CCPM and 456 CCPM and 410 CCPM and 123 CCPM and 132 CCPM and 186 CCPM and 230 CCPM and 206 CCPM; Displacement assay raw data (CCPM) (PKCα [2]; 100 nM test substance, listed as PMA): 341 CCPM and 382 CCPM and 361 CCPM and 56 CCPM and 49 CCPM and 43 CCPM and 48 CCPM and 57 CCPM and 40 CCPM
– | CC(=O)O[C@@]12[C@H](O)[C@@H](C)[C@@]3(O)[C@@H](C=C(CO)C[C@]4(O)C(=O)C(C)=C[C@@H]34)[C@@H]1C2(C)C [Phorbol 13-acetate, phorbol 13-acetate] | 120000 | – | – | – | – | – | – | –
